Test results published in US12655092B2, “Precursor compounds of ester compounds” (University of Guelph, priority 2019, dated 2026).
Several values for one entry are separate records, joined by “and”; a condition that tells them apart may be missing. Identical values can stand only once. Marks after values point to notes of the source that are not given here.

What was measured:
[1] = test system: spotted-wing Drosophila (SWD) adults; assay: Mortality of adult SWD on blueberries exposed to EF vapor released from the precursor; assay type: in vivo
Protocol: The EF precursor from Example 1 was activated using an acid-dispersed substrate (acidified substrate prepared in Example 1) and the moisture generated from fruit respiration to release EF vapor. In a model system utilized spotted-wing Drosophila (SWD), an invasive insect pest of many fruit crops, as the surrogate test organism. The mortality of adult SWD on blueberries was evaluated when they were exposed to the EF vapor released from the precursor. Different amounts of the EF precursor (2.5, 5.0, and 7.5 mg) were activated using the citric acid-dispersed substrate to release 1, 2, and 3 mg of EF, respectively, in a sealed 1 L glass jar containing 0, 20 or 40 g of blueberries and 10 adult SWD.

[2] = Storage stability of the precursor at 25° C. under 0, 60 and 100% RH (EF release after storage); assay type: physicochemical
Protocol: The stability of the precursor was studied over a period of 30 days. The precursor was stored at 25° C. under 0, 60, and 100% RH. An environmental chamber (MLR-350H, Sanyo Electric Co., Ltd. Japan) was used to control the humidity levels and temperature. Samples from each condition were tested for EF release at 1, 15, and 30th day at 25° C. using 0.1 N citric acid solution as described above.

[3] = EF release from the precursor activated with 0.1 N citric acid solution, headspace GC analysis; assay type: physicochemical; settings: for EF released: after 120 min
Protocol: (§1) The cumulative release of EF from the precursor was determined using an automatic headspace analysis system (FIG. 1). The system comprising of an environmental chamber (MLR-350H, Sanyo Electric Co., Ltd. Japan), a gas chromatograph (GC 6890, Agilent Technologies Inc., Santa Clara, CA, USA) equipped with a flame ionization detector (FID), stream selection valves (EMTCA-CE, VICI Valco Inst., Houston, TX, USA), 1/16 stainless steel tubing, and a control board (SRI Instruments Inc., Las Vegas, Nev., USA). The capillary column used with the GC was Agilent J&W DB-624 (Agilent Technologies Inc., Santa Clara, CA, USA) with 30 m length, 0.53 mm I.D, and 3 μm film thickness. The temperature of the detector and the oven were 200° C. and 40° C., respectively. The flow rates of N2, H2, and O2 were 30, 50, and 200 mL/min, respectively. The calibration curve was prepared by measuring standard headspace concentration of a known amount of EF. Chromatograms were analyzed using the Peak Simple software (393-32 bit, SRI Instruments, CA, USA). At any given sampling point, the total amount of EF released into the headspace (Mt, μL) was determined according to Eqs. 5 to 7 by the addition of the recorded amount (Mr, μL) and the accumulated loss (Ml, μL) of all the previous sampling points up to that point.
To activate the release of EF, two approaches were evaluated. In the first approach, 1-2 mg of the precursor was placed in a 10 mL, glass beaker inside a hermetically sealed 1 L, glass jar as shown in FIG. 1. The headspace gas was extracted through a septum attached to the jar lid at predetermined time intervals. EF release was triggered by distributing 1 mL of 0.1 N citric acid on the precursor particles using a pipette (Fisher Scientific, Ottawa, ON, Canada) just before closing the jar and attaching it to the sampling needle. The release of EF from the precursor was studied at 5, 15, and 25° C.
(§2) The release kinetics of EF from its precursor were modeled using an empirical pseudo-first order reaction kinetic model:
(§3) [formula] where Ce is the concentration of EF in the headspace of the 1 L test jar at an infinite time; C is the EF released at time, t; C0 is the EF initial concentration (which was equal to zero in our case); and k is the release rate constants. Non-linear regression analyses were conducted to fit the release data and determine the model parameters. Results and Discussion Ethyl Formate Precursor Formation

[4] = EF release from the precursor on citric acid-acidified nonwoven substrate at different RH, headspace GC analysis; assay type: physicochemical; settings: 25° C.; for Ce / k: fitted model
Protocol: as §1
In the second study, the release of EF was evaluated using an acidified substrate which was prepared by impregnating 0.3 mL of 5% (w/v) citric acid/anhydrous ethanol solution into a 3×3 cm spun-bound polypropylene nonwoven, followed by drying it overnight at 40° C. The precursor (1-2 mg) was then spreaded on the top of the acidified nonwoven layer and exposed to the test relative humidity maintained in a hermetically 1 L glass jar using silica gel (0% RH) or saturated salt solutions (magnesium nitrate, 53% RH; sodium chloride, 75% RH; potassium nitrate, 94% RH) (FIG. 1) (ASTM Standard E104-02 2012; Greenspan, 1977). EF release, expressed in milligram of EF per milligram of precursor per litre of headspace air, was determined using the headspace analysis system described above.
as §2, §3

[5] = Dispersion of precursor particulates in water; assay type: physicochemical; settings: 5 h of stirring
[6] = test system: Penicillium digitatum; settings: EF vapor 6.5-11.5 mmol/dish, agar medium; cited from earlier work
[7] = test system: test insects in the wheat, split faba beans and sorghum bins; settings: 85 g/t for 4 h followed by second 85 g/t treatment, unsealed metal bins; cited from earlier work
[8] = test system: adult weevils; settings: 50-55 g/m^3 headspace concentration at 4-8° C. for 24 h, apple; cited from earlier work
[9] = test system: Rhizopus stolonifer, Colletotrichum musae, Erwinia carotovora, and Pseudomonas aeruginosa; settings: EF vapor, agar medium; cited from earlier work
[10] = test system: Saccharomyces rouxii and Saccharomyces mellis; settings: EF at 3 mL/lb on Deglet Noor dates; cited from earlier work
[11] = 25 °C, fitted pseudo-first order model, listed as A
[12] = 25 °C, fitted pseudo-first order model, listed as B

In the case of `CCOC=NNC(=O)CCCCC(=O)NN=COCC` [EF precursor, diethyl N,N′-adipoyldiformohydrazonate], the mortality ([1]; after 2 h, 1 mg EF (2.5 mg precursor), 1 L jar with 40 g of blueberries) is reported as 63%, the mortality ([1]; after 2 h, 1 mg EF, jars without blueberries) is reported as 16% and the mortality ([1]; after 2 h, 3 mg EF (7.5 mg precursor), 1 L jar with 40 g of blueberries) is reported as 96%. For the same compound, the mortality ([1]; after 2 h, 3 mg EF, jars without blueberries) was 60%, the mortality ([1]; at 4 h, all the concentrations) was 100% and the “changes in the amount of EF released after storage” value ([2]; stored at 0% RH, days 1, 15 and 30) was “no significant (p>0.05) changes”. The “reduction in EF release” value ([2]; stored at 60% RH, after 15 days) was 18%, the “reduction in EF release” value ([2]; stored at 60% RH, after 30 days) was 45% and the “reduction in EF release” value ([2]; stored at 100% RH, 15 days) was 62%. For the same compound, the “reduction in EF release” value ([2]; stored at 100% RH, 30 days) was 81%.
In the case of `CCOC=NNC(=O)CCCCC(=O)NN=COCC` [Precursor A, diethyl N,N′-adipoyldiformohydrazonate], the EF released ([3]; 25 °C, listed as A) is reported as 89.0 ± 1.5%, the Ce [3, 11] is reported as 0.350 ± 0.005^a mg/mg · L and the k [3, 11] is reported as 0.037 ± 0.000^a min^−1.
In the case of `CCOC=NNC(=O)CCCCC(=O)NN=COCC` [Precursor B, diethyl N,N′-adipoyldiformohydrazonate], the EF release ([4]; 0% RH, acid-dispersed substrate) is reported as “no release was observed”, the Ce ([4]; 53% RH) is reported as 0.072 ± 0.013^c mg/mg · L and the k ([4]; 53% RH) is reported as 0.006 ± 0.001^b min^−1. For the same compound, the Ce ([4]; 75% RH) was 0.200 ± 0.037^b mg/mg · L, the k ([4]; 75% RH) was 0.024 ± 0.004^a min^−1 and the Ce ([4]; 94% RH) was 0.333 ± 0.019^a mg/mg · L. For the same compound, the k ([4]; 94% RH) was 0.026 ± 0.002^a min^−1, the “dispersibility of precursor particulates in water” value [5] was “agglomerates presisted even after 5 h of stirring” and the Ce ([3]; 5 °C, fitted model) was 0.792 ± 0.004^c mg/mg · L. For the same compound, the k ([3]; 5 °C, fitted model) was 0.004 ± 0.001^d min^−1, the Ce ([3]; 15 °C, fitted model) was 0.456 ± 0.014^a, b mg/mg · L and the k ([3]; 15 °C, fitted model) was 0.010 ± 0.000^c min^−1. For the same compound, the EF released ([3]; 25 °C, listed as B) was 97.9 ± 2.0%, the EF released ([3]; 25 °C, mg EF per mg precursor per L headspace) was 0.38±0.002 mg/mg · L and 0.382 ± 0.008^a mg/mg · L and the Ce [3, 12] was 0.389 ± 0.007^a, b mg/mg · L. For the same compound, the k [3, 12] was 0.030 ± 0.001^b min^−1.
For ethyl formate [EF], the growth inhibition [6] is given as “did not show complete inhibit”, the insect control [7] is given as “high level of control” and the mortality [8] is given as 100%. For the same compound, the germicidal concentration [9] was 6.5-11.5 mmol/dish and the microbial growth inhibition [10] was “able to inhibit the microbial growth”.
